Measurements: ChEMBL document CHEMBL3785018, “Pharmacokinetics/pharmacodynamics of acetaminophen analgesia in Japanese patients with chronic pain” (Biol Pharm Bull, 2007)
≈ marks a conversion by molar mass, not a printed value.

How the values were obtained:
[1] = AUC (0 to infinity) in Japanese healthy volunteer (5 volunteers) at 1000 mg, po by HPLC method; format: ADME, organism-based; design: dose 1000 mg, route oral, time infinity; details: human, in vivo
[2] = Apparent volume of distribution in Japanese healthy volunteer (5 volunteers) at 1000 mg, po by HPLC method; format: ADME, organism-based; details: human, in vivo
[3] = Cmax in Japanese healthy volunteer (5 volunteers) at 1000 mg, po by HPLC method; format: ADME, organism-based; design: dose 1000 mg, route oral; details: human, in vivo
[4] = Tmax in Japanese healthy volunteer (5 volunteers) at 1000 mg, po by HPLC method; format: ADME, organism-based; details: human, in vivo
Homo sapiens [5] = assay: AUC (0 to infinity) in Japanese healthy volunteer (5 volunteers) assessed as acetaminophen-cysteine at 1000 mg, po by HPLC method; format: ADME, organism-based; design: dose 1000 mg, time infinity, route oral; details: in vivo
Homo sapiens [6] = assay: AUC (0 to infinity) in Japanese healthy volunteer (5 volunteers) assessed as acetaminophen-glucuronide at 1000 mg, po by HPLC method; format: ADME, organism-based; design: dose 1000 mg, time infinity, route oral; details: in vivo
Homo sapiens [7] = assay: AUC (0 to infinity) in Japanese healthy volunteer (5 volunteers) assessed as acetaminophen-sulfate at 1000 mg, po by HPLC method; format: ADME, organism-based; design: dose 1000 mg, route oral, time infinity; details: in vivo
Homo sapiens [8] = assay: Toxicity in Japanese healthy volunteer (5 volunteers) at 1000 mg, po; format: organism-based; details: in vivo
[9] = Apparent volume of distribution in Japanese chronic pain patient (5 patients) at 800 +/- 141 mg, po administered as single dose by fluorescence polarization immunoassay; format: ADME, organism-based; details: human, in vivo
Homo sapiens [10] = assay: Analgesic activity in Japanese chronic pain patient (5 patients) assessed as maximum pain relief score at 800 +/- 141 mg, po administered as single dose measured over 15 mins to 6 hrs; format: functional
Homo sapiens [11] = assay: Analgesic activity in po dosed Japanese chronic pain patient (5 patients) assessed as compound dose require to cause 50% maximum pain relief score administered as single dose measured over 15 mins to 6 hrs; format: functional, organism-based
Homo sapiens [12] = assay: Analgesic activity in Japanese chronic pain patient (5 patients) assessed as sigmoid factor at 800 +/- 141 mg, po administered as single dose measured over 15 mins to 6 hrs; format: functional
[13] = Tmax in Japanese chronic pain patient at 600 to 1000 mg, po administered as single dose by fluorescence polarization immunoassay; format: ADME, organism-based; details: human, in vivo
Homo sapiens [14] = assay: Toxicity in Japanese chronic pain patient at 600 to 1000 mg, po administered as single dose; format: organism-based; details: in vivo
[15] = Drug uptake in Japanese chronic pain patient at 600 to 1000 mg, po administered as single dose after 4 hrs by fluorescence polarization immunoassay; format: ADME, organism-based; details: human, in vivo, read-out: Drug uptake
[16] = Drug uptake in human after 4 hrs; format: ADME, organism-based; details: in vivo, read-out: Drug uptake
Homo sapiens [17] = assay: Drug metabolism in Japanese healthy volunteer assessed as acetaminophen-cysteine metabolite formation at 1000 mg, po by HPLC method; format: ADME, organism-based; details: in vivo
Homo sapiens [18] = assay: Drug level in Japanese healthy volunteer treated with acetaminophen at 1000 mg, po by HPLC method; format: ADME, organism-based; details: in vivo

SMILES	AUC(0-inf) [1]	Vd/F [2]	Cmax [3]	Tmax [4]	AUC (Homo sapiens [5])	AUC (Homo sapiens [6])	AUC (Homo sapiens [7])	Activity (Homo sapiens [8])	Vd/F [9]	Emax (Homo sapiens [10])	EC50 (Homo sapiens [11])	Activity (Homo sapiens [12])	Tmax [13]	Activity (Homo sapiens [14])	concentration at 4 h [15]	concentration at 4 h [16]	Drug metabolism (Homo sapiens [17])	Drug metabolism (Homo sapiens [18])
CC(=O)Nc1ccc(O)cc1 [ACETAMINOPHEN]	77800 ng·h/mL	69.7 L	17700 ng/mL	30 min	3700 ng·h/mL	66000 ng·h/mL	21000 ng·h/mL	Non-toxic	30.9 L	4.6	2 µg/mL (≈ 13.2 µM)	1.3	30 min	Non-toxic	6700 ng/mL	120000 ng/mL	< 0.2 µg/mL	
CC(=O)Nc1ccc(O)c(SC[C@H](N)C(=O)O)c1																		metabolite_detected
